Values of other authors in paper PMC13379419, “Integrating high-fidelity hiPSC-cardiomyocytes with AI-driven modeling for enhanced proarrhythmic risk assessment” (Archives of Toxicology, 2026).

Set-up: method as in none printed
Details: clinical maximum plasma concentration

Cmax: 3000 nM
Compound: C=C[C@H]1C[N@@]2CC[C@H]1C[C@@H]2[C@@H](O)c1ccnc2ccc(OC)cc12 [Quinidine]
